Data taken from patent US6005007A, “Retinoids, methods for their production and use” (priority 1997, dated 1999).

How the values were obtained:
RXRα [1] = target: T1, RXRα (Homo sapiens, UniProt P19793); experiment: Receptor binding, RXRα; conditions: tritiated retinoid competition
T1 sequence (P19793 1-462): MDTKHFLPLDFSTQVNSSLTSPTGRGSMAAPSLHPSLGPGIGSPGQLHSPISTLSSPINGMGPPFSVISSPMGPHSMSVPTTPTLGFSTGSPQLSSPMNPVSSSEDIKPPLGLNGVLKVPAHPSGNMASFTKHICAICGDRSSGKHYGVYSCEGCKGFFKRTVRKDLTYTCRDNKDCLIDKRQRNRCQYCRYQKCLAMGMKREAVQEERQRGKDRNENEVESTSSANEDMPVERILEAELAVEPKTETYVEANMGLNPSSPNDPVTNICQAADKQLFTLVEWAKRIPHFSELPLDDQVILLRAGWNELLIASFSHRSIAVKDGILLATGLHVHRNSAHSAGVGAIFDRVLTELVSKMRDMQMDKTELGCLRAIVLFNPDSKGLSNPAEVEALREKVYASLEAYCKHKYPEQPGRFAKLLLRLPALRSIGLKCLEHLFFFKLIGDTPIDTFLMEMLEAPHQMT

RARγ [2] = target: T2, RARγ (Homo sapiens, UniProt P13631); experiment: Receptor binding, RARγ; conditions: tritiated retinoid competition
T2 sequence (P13631 1-454): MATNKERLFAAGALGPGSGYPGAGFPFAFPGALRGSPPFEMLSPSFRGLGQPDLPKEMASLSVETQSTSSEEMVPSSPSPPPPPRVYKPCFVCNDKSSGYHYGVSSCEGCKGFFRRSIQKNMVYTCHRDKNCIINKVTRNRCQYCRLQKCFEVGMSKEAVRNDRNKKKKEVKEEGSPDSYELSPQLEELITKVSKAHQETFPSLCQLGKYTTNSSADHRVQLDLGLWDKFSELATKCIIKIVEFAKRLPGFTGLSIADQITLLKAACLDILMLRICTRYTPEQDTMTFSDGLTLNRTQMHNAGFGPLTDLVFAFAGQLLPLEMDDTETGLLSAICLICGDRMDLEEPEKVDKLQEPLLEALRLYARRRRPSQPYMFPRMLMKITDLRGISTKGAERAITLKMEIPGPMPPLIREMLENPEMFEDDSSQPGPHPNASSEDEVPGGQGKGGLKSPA

RARα [3] = target: T3, RARα (Homo sapiens, UniProt P10276); experiment: Co-transfection assay, RARα agonist activity; format: cell-based; set-up: expressed in transfected cells; host or cells: CV-1 (African green monkey kidney fibroblasts); conditions: CV-1 cells, luciferase reporter, read-out: RARα Pot
T3 sequence (P10276 1-462): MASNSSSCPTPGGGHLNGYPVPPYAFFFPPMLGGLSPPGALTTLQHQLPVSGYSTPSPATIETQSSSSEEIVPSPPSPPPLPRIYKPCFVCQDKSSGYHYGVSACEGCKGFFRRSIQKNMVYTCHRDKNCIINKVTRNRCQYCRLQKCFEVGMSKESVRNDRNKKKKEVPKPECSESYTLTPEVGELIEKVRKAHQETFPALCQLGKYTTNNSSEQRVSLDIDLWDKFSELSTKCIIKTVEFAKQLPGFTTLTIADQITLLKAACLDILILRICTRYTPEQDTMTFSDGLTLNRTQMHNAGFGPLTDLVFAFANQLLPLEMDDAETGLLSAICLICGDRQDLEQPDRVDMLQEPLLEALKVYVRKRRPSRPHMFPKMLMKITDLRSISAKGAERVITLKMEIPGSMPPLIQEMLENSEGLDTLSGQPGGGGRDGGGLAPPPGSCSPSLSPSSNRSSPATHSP

RXRα [4] = target: T1, RXRα; experiment: Co-transfection assay, RXRα agonist activity; format: cell-based; set-up: expressed in transfected cells; host or cells: CV-1 (African green monkey kidney fibroblasts); conditions: CV-1 cells, luciferase reporter, read-out: RXRα Pot
RXRγ = target: T4, RXRγ (Mus musculus, UniProt P28705); experiment: Receptor binding, RXRγ; conditions: tritiated retinoid competition
T4 construct: expressed in transfected cells; host or cells: CV-1 (African green monkey kidney fibroblasts)
T4 sequence (P28705 1-463): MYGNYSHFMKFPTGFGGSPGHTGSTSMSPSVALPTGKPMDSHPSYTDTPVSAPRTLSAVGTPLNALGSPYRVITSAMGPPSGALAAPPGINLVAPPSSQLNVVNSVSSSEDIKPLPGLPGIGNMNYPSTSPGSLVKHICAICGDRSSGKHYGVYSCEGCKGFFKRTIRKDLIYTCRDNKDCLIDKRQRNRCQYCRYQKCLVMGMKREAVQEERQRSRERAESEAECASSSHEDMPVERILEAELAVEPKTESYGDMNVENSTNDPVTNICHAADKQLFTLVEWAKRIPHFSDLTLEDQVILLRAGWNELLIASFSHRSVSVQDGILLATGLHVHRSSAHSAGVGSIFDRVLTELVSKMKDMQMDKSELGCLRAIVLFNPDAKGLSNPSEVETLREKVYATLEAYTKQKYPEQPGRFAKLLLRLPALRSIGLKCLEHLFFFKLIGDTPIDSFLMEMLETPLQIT

RARγ [5] = target: T2, RARγ; experiment: Co-transfection assay, RARγ agonist activity; format: cell-based; set-up: expressed in transfected cells; host or cells: CV-1 (African green monkey kidney fibroblasts); conditions: CV-1 cells, luciferase reporter, read-out: RARγ Pot
RARβ = target: T5, RARβ (Homo sapiens, UniProt P10826); experiment: Receptor binding, RARβ; conditions: tritiated retinoid competition
T5 sequence (P10826 1-448 isoform P10826-2): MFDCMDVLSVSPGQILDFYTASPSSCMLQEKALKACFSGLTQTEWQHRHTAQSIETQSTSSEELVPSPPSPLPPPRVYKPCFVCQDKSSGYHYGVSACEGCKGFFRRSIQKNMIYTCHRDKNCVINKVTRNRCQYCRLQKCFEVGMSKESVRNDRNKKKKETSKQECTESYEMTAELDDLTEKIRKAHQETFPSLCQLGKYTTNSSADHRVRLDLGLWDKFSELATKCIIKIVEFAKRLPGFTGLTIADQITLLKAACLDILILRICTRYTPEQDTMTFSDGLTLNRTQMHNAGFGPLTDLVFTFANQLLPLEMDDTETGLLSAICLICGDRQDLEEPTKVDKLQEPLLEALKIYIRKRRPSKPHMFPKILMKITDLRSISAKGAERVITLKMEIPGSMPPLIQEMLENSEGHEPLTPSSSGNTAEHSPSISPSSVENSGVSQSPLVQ

RARα [6] = target: T3, RARα; experiment: Receptor binding, RARα; conditions: tritiated retinoid competition

| SMILES | Kd (RXRα [1]) | Kd (RARγ [2]) | EC50 (RARα [3]) | EC50 (RXRα [4]) | Kd (RXRγ) | EC50 (RARγ [5]) | Kd (RARβ) | Kd (RARα [6]) |
| --- | --- | --- | --- | --- | --- | --- | --- | --- |
| CC(/C=C/CC1(c2ccc3c(c2)C(C)(C)CCC3(C)C)CC1)=C\C(=O)O [Compound 101, (2E, 4E)-6-[1-(5,5,8,8-Tetramethyl-5,6,7,8-tetrahydronaphtha-len-2-yl)cyclopropanyl]-3-methyl hexadienoic acid] | 2 nM | 552 nM | 59 nM | 13 nM | 8 nM | 24 nM | 463 nM | 644 nM |
| CC(/C=C/CC1(c2cc(C(C)(C)C)cc3c2CCC3(C)C)CC1)=C\C(=O)O [Compound 107, (2E, 4E)-6-[1-(6-t-butyl-1,1-dimethyl-indan-4-yl)-cyclopropyl]-3-methyl hexadienoic acid] | 6 nM | > 5000 nM | > 10000 nM | 34 nM | 22 nM | > 10000 nM | > 5000 nM | > 5000 nM |
| CC(/C=C/CC1(c2ccc3c(c2)C(C)(C)CCC3(C)C)CCCC1)=C\C(=O)O [Compound 108, (2E, 4E)-6-[(5,5,8,8-Tetramethyl-5,6,7,8-tetrahydronaphtha-len-2-yl)cyclopentane-1-yl]-3-methyl hexadienoic acid] | 41 nM | > 5000 nM | > 10000 nM | 63 nM | 128 nM | > 10000 nM | > 5000 nM | > 5000 nM |
